Tested on: chicken muscle stem cells
Experiment: Muscle differentiation of chicken muscle stem cells in serum-free differentiation medium (MyHC immunocytochemistry, Fusion Index)
Assay type: cell-based
Details: additive concentrations of Table 1, second day, FIG. 2
Method: Muscle tissue was collected from edible bovine shank meat, and CD56-positive cells were isolated using a Magnetic-Activated Cell Sorting (MACS) system to obtain bovine muscle stem cells. Separately, muscle stem cells were isolated from edible chicken breast meat.
Then, on the second day, the expression of myosin heavy chain (MyHC) was measured by immunocytochemistry. The cells were fixed with 4% paraformaldehyde (Nacalai Tesque, Cat No. 09154-85) for 15 minutes. After washing twice with Dulbecco's phosphate-buffered saline (without Ca, Mg) (Nacalai Tesque, Cat No. 14249-24), the cells were immersed in Dulbecco's phosphate-buffered saline (without Ca, Mg) containing 0.1% Triton X-100 (Sigma, Cat No. T9284) for 10 minutes. Then, the solution was replaced with a blocking buffer and left to stand for 1 hour. As the blocking buffer, a solution was used in which Dulbecco's phosphate-buffered saline (without Ca, Mg) was supplemented with 5% horse serum and 0.1% Triton X-100. […] MyHC-positive cells were detected with a fluorescence microscope ECLIPSE Ti2-E (Nikon), and the Fusion Index (=Number of MyHC-positive nuclei/Total number of nuclei×100(%)) was calculated. […]
Then, on the second day, the expression of myosin heavy chain (MyHC) was measured by the same method as in (1-2).

In the case of `OCc1ccccc1O[C@@H]1O[C@H](CO)[C@@H](O)[C@H](O)[C@H]1O` [Salicin], the “muscle differentiation (MyHC expression, Fusion Index)” value is reported as “promoted the muscle differentiation of chicken cells”.

Source: patent US20260198526A1, “METHOD FOR PROMOTING DIFFERENTIATION OF ANIMAL CELL” (Ajinomoto Co., Inc., priority 2023, published 2026)
